The MIC is the smallest concentration in the dilution series that meets the test's criterion for growth inhibition.

In brackets after ≈: the same amount, converted by molar mass. Like-named read-outs stand apart in the source and are kept apart here. Where only a bound is given, the exact number is not on record here.

The subject of series [1] is Ka02 multi-drug resistant P. Aeruginosa strain. Nature of the series: Antibiogram of Ka02 (Vitek MIC). On Final (sensitive/resistant call): key: S = antibiotic sensitive; R = antibiotic resistance. The class given is cell-based. Further details: MIC site #2: unit not given here. To be noted: for Vitek (sensitive/resistant call): calls of the two sites; for MIC: Pseudomonas aeruginosa.
The next series relates to Ka02 (MDR P. aeruginosa). Nature of the series: Mouse model of pneumonia driven by Ka02. To be noted: for Animal survival at day 3: Ka02 lung infection, treatment from 1 hr post-infection; for Animal survival at day 3 / survivors at day 3: unchanged at day 9; for survivors at day 3: survivors/animals in group. The class given is in vivo, C57 Black mice. The protocol: Sixty-one (61) male Adult C57 Black mice (25-30 g, Harlan Nossan, Milan, Italy) were housed in a controlled environment in cages with filter tops in specific pathogen-free conditions. They were briefly anesthetized with inhaled sevorane (Abbot Laboratories) in an oxygenated chamber and placed in a supine position with their heads elevated approximately 30°. Ka02 bacterial inoculums (10^6 cfu's in 50 μl of lactated Ringer's solution) were instilled slowly into the left lung of each animal using a gavage needle.
Mice were randomly divided into 3 experimental treatment groups as follows:
a) Saline-Treated (n=20): saline administered i.v. 1 hr after infection followed by one further i.p. administration at 5 hr post-infection; b) LST-002-Treated (n=21): LST-002 given i.v. 1 hr after infection at a dose of 20 mg/kg followed by one further i.p. administration at 5 hr post-infection at a dose of 15 mg/kg; c) Positive control-Imipenem-Treated (n=20): “Tienam” (Merck, Sharpe and Dohme)] (active ingredient, imipenem, a carbapenem antibiotic) given i.p. 1 hr after infection at a dose of 25 mg/kg followed by further i.p. administrations at 25 mg/kg at time points of 5 hr, 24 hr, 29 hr, 48 hr and 53 hr following infection.
Survival was monitored for all groups every 12 hrs until day 9 post-infection and data depicted in Kaplan-Meier curves (FIG. 18). […] Survival at day 9 was unchanged from survival data observed at day 3, i.e. LST-002 was 240% more efficacious in increasing survival in mice with pneumonia than a currently accepted treatment protocol and increased survival by 700% as compared with untreated mice.

Series [2] deals with MDR P. aeruginosa strain Ka02. Nature of the series: "Sandwich" motility assay, Ka02. The class given is cell-based. To be noted: LST-002 0.3-80 μg/ml, even at very low concentrations. The procedure: Using an alternative in-vitro motility technology, the effects of LST-002 on motility of a MDR P. aeruginosa (PA) strain (Ka02) was performed. In 10 cm plastic culture dishes, a 6 ml underlayer of 0.6% agar in LB was poured and allowed to solidify. During this period, 6 ml of LB was aliquoted into separate tubes to which LST-002 was added at final concentrations 80, 20, 5, 1.25, 0.3 and 0 μg/ml. Thereafter, 10 μA of bacterial culture (containing ˜20-100 cfu) was added followed by 6 mls of 0.6% agar in LB. This ˜12 ml solution was poured onto the solidified agar under-layer. Following solidification, a final upper layer comprising of 6 mls 0.6% agar in LB was added. Plates were transferred to an incubator at 37° C. for 18-22 hr to allow bacterial growth and swarming (i.e. motility) and the diameter of the bacterial colonies measured.

Another series concerns laboratory strain Pa01. Nature of the series: "Sandwich" motility assay, Pa01. The class given is cell-based, P. aeruginosa. The conditions noted are these: LST-002 0.3-80 μg/ml, even at very low concentrations.
The next series has as its system MDR PA strain Ka02. Nature of the series: Neutropenic mouse thigh muscle infection model. The class given is in vivo, CD-1 mice.
The conditions of series [3]: single i.v. injection at 10 mg/kg; preliminary.
The subject of series [4] is P. Aeruginosa strains harboring flagellin type B (Pa01, Ka01, Ka02, Ka03, Ka04, 25619, NCTC 10662). The series can be described thus: Whole-bacteria binding ELISA, flagellin type B strains. The conditions noted are these: LST-007 supernatant, LST-008 0.5 μg/ml. A general note: ELISA stands for enzyme-linked immunosorbent assay.
Procedure: P. aeruginosa laboratory strains PAK (flagellin type A) and Pa01 (flagellin type B) were grown overnight, diluted to an OD of 0.3 and washed with PBS. Fifty μl bacteria were then plated onto ELISA plates pre-coated with 50 μl poly-L-lysine (1 μg/ml in PBS) which were blocked with PBS-10% fetal calf serum (FCS). Following overnight incubation with bacteria at 4° C., plates were washed with 0.9% saline-0.05% Tween-20 and incubated with 1:2 dilutions of LST-001, LST-002, LST-007 supernatant or purified LST-003 (˜2 μg/ml) for 2 hrs at room temperature. Following washing, secondary goat anti-mouse (LST-001, LST-002) or goat anti-human detecting antibodies (LST-003, LST-007) were added and coloration generated following the addition of TMB substrate and plates read for absorbance (405 nm) following addition of 10% H2SO4.
Series [5] deals with P. Aeruginosa flagellin type A strain 27853. To be noted: ELISA, LST-007 supernatant, LST-008 0.5 μg/ml.
[6] abbreviates: read-out: MIC site #1, heading: MIC site #1, Ka02, Vitek, testing site #1.
The mark [7] stands for this setting: read-out: MIC site #2, heading: MIC site #2, Ka02, Vitek, testing site #2.
Setting [8] is: ipsilateral/contralateral lesion area, 20 mg/kg i.v. +60 min, 10 mg/kg i.p. +5, +24, +48 hr.

Procedure for MDR PA strain Ka02: Female CD-1 mice weighing 23-27 g (3-5 weeks in age) were rendered neutropenic by split i.p. administration of cyclophosphamide at doses of 150 mg/kg and 100 mg/kg on days 0 and +3. On day 4, 50 μl of freshly-grown Ka02 (2×10^7 cfu's per ml) was injected at a depth of 5 mm into the right thigh muscle (“ipsilateral”) whereas an equivalent volume of saline was injected into the left thigh muscle (“contralateral”). Over an ensuing 3 day period (days 5-7, i.e. 24, 48 and 72 hr following Ka02 administration), the surface areas of the infected thigh muscle lesions were measured with calipers in both ipsilateral and contralateral muscles. Ratios of surface areas of infection lesions of ipsilateral muscles divided by contralateral muscle lesions were calculated with ratios >1 indicative of Ka02. This calculation is called the Ratio-Infection Index (RII). In some mice, LST-002 was administered i.v. at 20 mg/kg, 60 min after administration of Ka02. Further dosing of LST-002 (10 mg/kg) was given i.p. at time points+5 hr, +24 hr and +48 hr after infection.

With `NCC[C@H](O)C(=O)N[C@@H]1C[C@H](N)[C@@H](O[C@H]2O[C@H](CN)[C@@H](O)[C@H](O)[C@H]2O)[C@H](O)[C@H]1O[C@H]1O[C@H](CO)[C@@H](O)[C@H](N)[C@H]1O` [Amikacin], in series [1] (Ka02), the “Final (sensitive/resistant call)” value was “S” and the “Vitek (sensitive/resistant call)” value was “S/S”.

Consider `C[C@H]1[C@H](NC(=O)/C(=N\OC(C)(C)C(=O)O)c2csc(N)n2)C(=O)N1S(=O)(=O)O` [Aztreonam], for which, in series [1] (Ka02), the “Final (sensitive/resistant call)” value is given as “R” and the “Vitek (sensitive/resistant call)” value is recorded as “R”.

Consider `CO/N=C(\C(=O)N[C@@H]1C(=O)N2C(C(=O)[O-])=C(C[N+]3(C)CCCC3)CS[C@H]12)c1csc(N)n1` [Cefepime], for which, in series [1] (Ka02), the “Final (sensitive/resistant call)” value is “R” and the “Vitek (sensitive/resistant call)” value was “R/R”.

As to `CO/N=C(\C(=O)N[C@@H]1C(=O)N2C(C(=O)O)=C(COC(C)=O)CS[C@H]12)c1csc(N)n1` [Cefotaxime], in series [1] (Ka02), the “Final (sensitive/resistant call)” value is given as “R” and the “Vitek (sensitive/resistant call)” value was “R/R”.

For the molecule `CC(C)(O/N=C(\C(=O)N[C@@H]1C(=O)N2C(C(=O)[O-])=C(C[n+]3ccccc3)CS[C@H]12)c1csc(N)n1)C(=O)O` [Ceftazidime], in series [1] (Ka02), the “Final (sensitive/resistant call)” value was “S-R” and the “Vitek (sensitive/resistant call)” value is “S/R”. Further, in series [1] (setting [6]), the minimal inhibitory concentration (MIC) is 8 µg/mL (≈ 14.6 µM).

For `O=C(N[C@H](CO)[C@H](O)c1ccc([N+](=O)[O-])cc1)C(Cl)Cl` [Chloramphenicol], in series [1] (Ka02), the “Final (sensitive/resistant call)” value was “R” and the “Vitek (sensitive/resistant call)” value is given as “R”.

As for `O=C(O)c1cn(C2CC2)c2cc(N3CCNCC3)c(F)cc2c1=O` [Ciprofloxacin], in series [1] (Ka02), the “Final (sensitive/resistant call)” value is recorded as “R” and the “Vitek (sensitive/resistant call)” value was “R/R”. The MIC in series [1] (setting [6]) was 4 µg/mL (≈ 12.1 µM). Moreover, the MIC in series [1] (setting [7]) was no less than 4 µg/mL.

Regarding `C[C@@H](O)[C@H]1C(=O)N2C(C(=O)O)=C(SCCN=CN)C[C@H]12` [Imipenem], in series [1] (Ka02), the “Final (sensitive/resistant call)” value is “R” and the “Vitek (sensitive/resistant call)” value is “R”. Besides, in the series with Ka02 (MDR P. aeruginosa), the “Animal survival at day 3” value was determined as 30% and the “survivors at day 3” value is recorded as 6/20.

For the molecule `C[C@H]1COc2c(N3CCN(C)CC3)c(F)cc3c(=O)c(C(=O)O)cn1c23` [Levofloxacin], in series [1] (Ka02), the “Final (sensitive/resistant call)” value is listed as “R” and the “Vitek (sensitive/resistant call)” value is recorded as “R”. Also, in series [1] (setting [7]), the MIC is no less than 8 µg/mL.

In the case of `C[C@@H](O)[C@H]1C(=O)N2C(C(=O)O)=C(S[C@@H]3CN[C@H](C(=O)N(C)C)C3)[C@H](C)[C@H]12` [Meropenem], in series [1] (Ka02), the “Final (sensitive/resistant call)” value is given as “R” and the “Vitek (sensitive/resistant call)” value is listed as “R/R”.

For the molecule `CN(C)c1ccc(O)c2c1C[C@H]1C[C@H]3[C@H](N(C)C)C(O)=C(C(N)=O)C(=O)[C@@]3(O)C(O)=C1C2=O` [Minocycline], in series [1] (Ka02), the “Final (sensitive/resistant call)” value is recorded as “R”.

As for `CCN1CCN(C(=O)N[C@@H](C(=O)N[C@@H]2C(=O)N3[C@@H]2SC(C)(C)[C@@H]3C(=O)O)c2ccccc2)C(=O)C1=O` [Piperacillin], in series [1] (Ka02), the “Final (sensitive/resistant call)” value was “R” and the “Vitek (sensitive/resistant call)” value is “R”.

As for `CN(C)c1cc(NC(=O)CNC(C)(C)C)c(O)c2c1C[C@H]1C[C@H]3[C@H](N(C)C)C(O)=C(C(N)=O)C(=O)[C@@]3(O)C(O)=C1C2=O` [Tigecycline], in series [1] (Ka02), the “Final (sensitive/resistant call)” value was “R” and the “Vitek (sensitive/resistant call)” value was “R”. Besides, in series [1] (read-out: MIC site #2), the MIC is no less than 8 µg/mL.

Turning to `NC[C@H]1O[C@H](O[C@H]2[C@H](O)[C@@H](O[C@H]3O[C@H](CO)[C@@H](O)[C@H](N)[C@H]3O)[C@H](N)C[C@@H]2N)[C@H](N)C[C@@H]1O` [Tobramycin], in series [1] (Ka02), the “Final (sensitive/resistant call)” value is listed as “R” and the “Vitek (sensitive/resistant call)” value was “R/I”. Moreover, the MIC in series [1] (setting [7]) amounted to 8 µg/mL (≈ 17.1 µM).

Turning to Amoxicillin/Calvulanic acid, in series [1] (Ka02), the “Final (sensitive/resistant call)” value is on record as “R” and the “Vitek (sensitive/resistant call)” value is given as “R”. Also, the “MIC site #2” value in series [1] (Ka02, Vitek, testing site #2) turned out to be 32.

For Ampicillin/Sulbactam, in series [1] (Ka02), the “Final (sensitive/resistant call)” value was “R” and the “Vitek (sensitive/resistant call)” value is on record as “R/R”.

As for Colistin, in series [1] (Ka02), the “Final (sensitive/resistant call)” value was “S” and the “Vitek (sensitive/resistant call)” value is on record as “S”. In addition, the “MIC site #2” value in series [1] (Ka02, Vitek, testing site #2) is on record as 2.

In the case of Gentamicin, in series [1] (Ka02, Vitek, testing site #2), the “MIC site #2” value is 4. Moreover, the “Vitek (sensitive/resistant call)” value in series [1] (Ka02) is “R/S”.

Piperacillin/Tazobactam: in series [1] (Ka02), the “Final (sensitive/resistant call)” value is “R” and the “Vitek (sensitive/resistant call)” value is reported as “R/R”.

For the molecule Ticracillin/CA, in series [1] (Ka02), the “Final (sensitive/resistant call)” value is “R” and the “Vitek (sensitive/resistant call)” value is given as “R”.

As for Trimethoprim-Sulfamethoxazole, in series [1] (Ka02), the “Final (sensitive/resistant call)” value is on record as “R” and the “Vitek (sensitive/resistant call)” value is “R/R”.

B1: LST-002: mouse monoclonal antibody of U.S. Pat. No. 4,834,976, specific to P. aeruginosa flagellin type B (antibody, V domains shown)
VH: EVMLVESGGGLVKPGGSLKLSCAASGFTFSTFTMSWVRQTPEKRLECVATINGGGGNTYYPDSVKGRFTISRDNAKNNLYLQMSSLRSEDTAFYFCSRLYGIYAMDYWGQGTSVTVSS
VL: MKSHTQVFVYMLLWLSGVEGDIVMTQSHIFMSTSVGDRVSITCKASQDVGSAVAWYQQKPGQSPKVLIYWTSTRHTGVPDRFAGSGSGTEFTLTISNVQSEDLADYFCQQYSSYPLTFGAGTKLELKR
For B1, the “size of bacterial colonies (motility)” value in series [2] is “significant reduction in the size of bacterial colonies”. In addition, the “size of bacterial colonies (motility)” value with laboratory strain Pa01 is on record as “significant reduction in the size of bacterial colonies”. Further, in the series with Ka02 (MDR P. aeruginosa), the “Animal survival at day 3” value is 71.4% and the “survivors at day 3” value is on record as 15/21. In the series on Ka02 (MDR P. aeruginosa) (day 3 / day 9 survival), the “increased survival as compared with untreated mice” value is 700% and the “more efficacious in increasing survival than currently accepted treatment protocol (imipenem)” value worked out at 240%. In the series on MDR PA strain Ka02 (setting [8]), the “Ratio-Infection Index (RII) day 5” value came out at 1.09 and the “Ratio-Infection Index (RII) day 7” value amounted to 0.96. Besides, the “infection lesions in thigh muscle infected with Ka02” value in the series on MDR PA strain Ka02 (neutropenic mice) is listed as “totally prevented infection lesions”. Also, in series [3], the early plasma concentration was roughly 200 µg/mL.

B2: LST-007: human IgM monoclonal antibody of U.S. Pat. No. 4,834,976, specific to P. aeruginosa flagellin type B (antibody, V domains shown)
VH: MDWTWRVFFLLAVAPGAHSQVRLVQSGTEVKKPGASVRVSCKASGYTFSNYYMYWVRQAPGQGLEWMAMINPSGGSTRYAQKFQGRVTMTRDTSTSTVYMELSSLRSEDTAVYYCARADSGSYFGYWGQGTLVTVSS
VL: MRVPAQLLGLLLLWLPGARCDIQLTQSPSFLSASVGDRVPITCRASQGISTHLAWYQQKPGKAPKLLIYAASTLQSGVPSRFSGSGSGTEFTLTISSLQPEDSATYYCQQLKSYPLTFGGGTKVEIKR
Consider B2, for which, in series [4], the “binding to whole bacteria harboring flagellin type B” value was “specifically binds to all seven P. Aeruginosa bacteria strains tested”. Besides, in series [5], the “binding to whole bacteria harboring flagellin type A” value is on record as “not flagellin type A”.
